# pIC50, pKi: −log10 of the molar value. “And” between values parts separate entries of the source, which are not always exact repeats. Equal values may be shown once. Read-outs that look alike come from different tables or passages of the source.
# Key:
# in vivo = details: rat; for F (oral availability): 1 mg/kg i.v. versus 10 mg/kg p.o.
# Description: (§1) Paw oedema was induced in male Wistar rats by intraplantar administration of C5aR-PA (350 μg per paw in 100 μL of saline control). Paw swelling (% area change from baseline) was recorded at indicated timepoints. […] C5aR antagonist was administering as an intravenous dose (1 mg/kg via an implanted jugular vein catheter in 50:50 DMSO/saline) versus an oral dose (10 mg/kg in olive oil, via gavage). Plasma was collected at various time points and analyzed. Error bars are means ± SEM normalized to maximal swelling of saline control. *p < 0.05, **p < 0.01 and ***p < 0.001 by student t-test.
# (§2) Male Wistar rats (6–8 wk, 250 ± 50 g) were bred at the Animal Resources Centre (Canning Vale, Australia) and housed post-shipment at the Australian Institute for Bioengineering and Nanotechnology (University of Queensland, Brisbane). […] After specific time-points, C5aR-PA was administered into the right hind paw pad (350 μg in 100 μL saline, i.pl). The left hind paw acted as a control, receiving saline only (100 μL). Rear paw thickness and width were measured at 1 h (and periodically over 4 h) post-injection using digital callipers (World Precision Instruments, Sarasota, FL, USA) and swelling was expressed as area (mm^2; thickness × width) and plotted as percentage change from baseline of each individual paw. […] Plasma was collected at various time points (0, 5, 15, 30 min, 1, 2, 3, 4, 6 and 8 h) from the jugular vein catheter and analyzed for antagonist concentrations using LCMS as described. The animal ethics committee of The University of Queensland approved all experiments according to NHMRC guidelines for the care and use of laboratory animals and in accordance with ARRIVE guidelines for reporting experiments involving animals. A total of N animals were used in each experiment as described.
# Supplementary Table 1. Pharmacokinetics parameters of C5aR antagonists in
# aC5aR antagonist were administered 1 mg/kg i.v. and 10 mg/kg p.o.
# Vdss; volume of distribution steady
# Cmax; maximal plasma concentration reached
# Tmax; time of maximal Cmax
# F; Fraction of intact compound absorbed to plasma (oral availability)
# Supplementary Table 2. Primer sequences for target genes.
# [1] = in vivo; cited from earlier work
# C5aR [2] = target: T1, C5aR (Homo sapiens, UniProt P21730); assay: In vitro migration (chemotaxis) assay of HMDM; format: cell-based; design: monocytes were isolated from buffy coats of anonymous donors; endogenous in cells; host or cells: primary human monocyte-derived macrophages (CD14+ monocytes from donor buffy coats, matured with M-CSF); details: antagonist 1 μM, 1 h then washed; 3 nM C5a for 16 h
# T1 sequence (P21730 1-350): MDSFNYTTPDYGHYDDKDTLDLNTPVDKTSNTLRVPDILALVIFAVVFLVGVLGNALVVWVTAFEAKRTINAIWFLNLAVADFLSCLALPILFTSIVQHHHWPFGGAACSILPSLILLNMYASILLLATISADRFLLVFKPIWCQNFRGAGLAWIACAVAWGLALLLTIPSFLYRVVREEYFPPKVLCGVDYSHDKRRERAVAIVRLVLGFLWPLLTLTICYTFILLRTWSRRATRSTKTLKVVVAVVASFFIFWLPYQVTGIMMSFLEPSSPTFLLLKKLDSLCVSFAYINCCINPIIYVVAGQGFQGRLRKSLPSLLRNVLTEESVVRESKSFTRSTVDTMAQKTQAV
# Text: Antagonists with a short residence time will be ineffective in this assay, because once the antagonist has dissociated from C5aR, C5a immediately binds and induces migration. […] Chemotactic index is expressed as fold change against control. […] Excess unbound antagonists were washed with serum-free medium and HMDM (0.1 × 10^6 cells/mL) then seeded into 5 μm Transwell inserts (Corning) creating a modified Boyden chamber. […] Migrated cells on the lower side of the membrane were stained with DAPI and counted. The chemotactic index was expressed as fold change versus control.
# C5aR [3] = tested on: C5aR; design: method as in PMID 18595693; details: inhibition of Ca2+ release versus […] rhC5a on U937 cells; read-out: Antagonist IC50; cited from earlier work
# C5aR [4] = target: T1, C5aR; assay: Intracellular calcium release assay in HMDM against rhC5a; details: for pIC50: HMDM calcium release
# Description: The concentration-response curves for calcium mobilization induced by rhC5a were determined in the presence of escalating concentrations of each of the three antagonists (Fig. 2D–F). […] Error bars are means ± SEM of three independent experiments (n = 3).
# Figure 3 Dependence of antagonist potencies (IC50) on C5a concentration in human monocyte-derived macrophages. […] Calculated pIC50 ± SEM and IC50 values for the three C5aR antagonists are summarized in the table versus concentration of C5a. Error bars are means ± SEM of three independent experiments (n = 3).
# C5aR [5] = target: T1, C5aR
# Description: A scintillation proximity assay was used to measure the affinity of C5aR antagonists as described[39]. […] Radioligand binding was then analyzed using a Microbeta scintillation counter (PerkinElmer).
# C5aR [6] = target: T2, C5aR (Rattus norvegicus, UniProt P97520); assay: C5aR-PA-induced rat paw oedema; format: in vivo, male Wistar rats; details: for Effect on paw swelling after 2 h / Reduction in paw swelling: 30 mg/kg p.o.; for Reduction in paw swelling: at 30 min post-injection of C5aR-PA
# T2 construct: C5aR-mediated rat paw oedema was induced by intraplantar administration of 350 μg C5aR-PA per hind paw; from tissue; host or cells: living male Wistar rats (hind paw)
# T2 sequence (P97520 1-352): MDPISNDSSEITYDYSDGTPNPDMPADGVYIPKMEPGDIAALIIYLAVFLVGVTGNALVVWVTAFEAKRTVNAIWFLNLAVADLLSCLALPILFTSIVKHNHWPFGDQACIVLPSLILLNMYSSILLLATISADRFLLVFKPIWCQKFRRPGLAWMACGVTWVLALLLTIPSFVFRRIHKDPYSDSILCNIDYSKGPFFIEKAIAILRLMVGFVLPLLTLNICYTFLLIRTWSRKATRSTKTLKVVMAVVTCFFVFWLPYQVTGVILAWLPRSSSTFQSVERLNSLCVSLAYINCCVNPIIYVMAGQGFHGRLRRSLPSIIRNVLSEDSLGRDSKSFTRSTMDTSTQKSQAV
# Description: as §1
# as §2, with “C5aR-mediated rat paw oedema was induced by intraplantar administration of 350 μg C5aR-PA per hind paw (Supplementary Fig. 5A). […] Male” for “Male”
# C5aR [7] = target: T1, C5aR; assay: C5a-induced inflammatory gene expression in HMDM (real-time PCR); details: 1 μM antagonist, 10 nM C5a at 16 h post-antagonist treatment
# Description: Real-time PCR analyses were conducted to further check the effect of residence time in other assays. […] Gene expression was measured by real-time PCR, normalized against 18S and converted to fold change relative to control.
# RNA was extracted from cells using ISOLATE II RNA Kit (Bioline) following manufacturer’s instructions. Real-time PCR was performed using 7900HT real-time with SYBR® Green PCR master mix (Applied Biosystems) and primers. Relative gene expression was normalized against 18S rRNA expression and expressed as fold change against control samples.
# C5aR [8] = target: T1, C5aR; assay: Washout residence time, calcium release in antagonist-pretreated HMDM; details: HMDM pre-treated 1 μM antagonist 1 h, washed, challenged with 3 nM C5a
# Description: Intracellular calcium release was induced in HMDM as described[40] and measured using a FLIPR instrument (Molecular Devices).
# C5a-induced neutropenia = tested on: C5a-induced neutropenia; design: method as in PMID 12384495; details: cited from earlier work
# C5aR [9] = details: inhibition of Ca2+ release versus 0.1nM rhC5a on neutrophils; read-out: Antagonist IC50; cited from earlier work
# [10] = male, Wistar, plasma, intravenous, 1 mg/kg
# [11] = male, Wistar, plasma, iv, 1 mg/kg
# [12] = male, Wistar, plasma, oral, 10 mg/kg
# [13] = male, Wistar, plasma, po, 10 mg/kg
Structure (SMILES),"pIC50 (C5aR [4]; IC50, C5a 3 nM)","pIC50 (C5aR [4]; IC50, C5a 10 nM)","pIC50 (C5aR [4]; IC50, C5a 30 nM)","pIC50 (C5aR [4]; IC50, C5a 100 nM)","pIC50 (C5aR [4]; IC50, C5a 300 nM)","pIC50 (C5aR [4]; pIC50 ± SEM, C5a 1 nM)",pKi (C5aR [5]),Effect on paw swelling after 2 h (C5aR [6]),Reduction in paw swelling (C5aR [6]) [%],"half-life (in vivo; male, Wistar, plasma) [min]",Vd (in vivo; [10]) [L/kg],clearance (in vivo; [10]) [mL/min/kg],AUC (in vivo; [11]) [ng·h/mL],Cmax (in vivo; [12]) [ng/mL],AUC (in vivo; [13]) [ng·h/mL],F (oral availability) (in vivo),also measured
"CC(=O)N[C@@H](Cc1ccccc1)C(=O)N[C@H]1CCCNC(=O)[C@H](CCCNC(=N)N)NC(=O)[C@H](Cc2c[nH]c3ccccc23)NC(=O)[C@@H](CC2CCCCC2)NC(=O)[C@@H]2CCCN2C1=O [3D53, Ac-Phe-[Orn-Pro-D-Cha-Trp-Arg]]",,,,,,,,,,,,,,,,,"Tmax (in vivo; male, Wistar, in vivo, po): 50 min; Cmax (in vivo; in vivo): 17.5 ng/mL; Vd (in vivo; in vivo): 4.1 L/kg; clearance (in vivo; in vivo): 52.1 mL/min/kg; half-life (in vivo; in vivo): 21.6 min; AUC (in vivo; in vivo, iv, 1 mg/kg): 323 ng·h/mL; AUC (in vivo; in vivo, po, 10 mg/kg): 76.6 ng·h/mL; Safety and tolerability [1]: safe and well tolerated"
CCc1cccc(CC)c1-c1cc(OC(C)C)c2c(n1)CCCC2Nc1ccccc1CCO (stereo not drawn) [JJ47],8.00,6.91,6.29,6.20,5.97,8.80,6.50,not much different to W54011,15,43.2,3.5,41,410,127,501,12.2% and ~ 12%,"Block of C5a-induced migration (C5aR [2]): not effective antagonists; pIC50 (C5aR [3]): 8.15; Kb (C5aR [4]): 5.01 nM; Antagonist mechanism (C5aR [4]; C5a concentration-response curves with escalating antagonist, HMDM): surmountable antagonists; pIC50 (C5aR [4]; IC50, C5a 1 nM): 8.70; Schild plot slope (C5aR [4]; against rhC5a, calcium release, HMDM): 0.94; Block of C5a-mediated expression of TNF, IL1B, CCL3 and PTGS2 (C5aR [7]): did not; Half-life t1/2 ± SEM (residence time on C5aR) (C5aR [8]): 36 ± 12 min"
COc1ccc2c(c1)C(C(=O)N(Cc1ccc(N(C)C)cc1)c1ccc(C(C)C)cc1)CCC2 (stereo not drawn) [W54011],8.05,7.62,7.26,6.46,5.84,8.40,7.10,no longer effective,35,124,18.3,82.8,212,484,1570,~ 74%,"pIC50 (C5aR [4]; pIC50 ± SEM, C5a 3 nM): 8.10; Block of C5aR-PA-induced paw swelling (C5aR [6]; 5 mg/kg per oral): did not block; Effect on C5aR-PA-induced paw swelling (C5aR [6]; 10 mg/kg p.o.): did not have much effect; Doses blocking C5a-induced gerbil neutropenia (C5a-induced neutropenia): 3 to 30 mg/kg; bioavailability (in vivo; [13]): 74.3%; pIC50 (C5aR [9]): 8.52"

# Source: paper PMC4837355, “Receptor residence time trumps drug-likeness and oral bioavailability in determining efficacy of complement C5a antagonists” (Scientific Reports, 2016)
